Measured values as given in ChEMBL document CHEMBL3431459, “Roche carnitine palmitoyltransferase modulator screening data (supplementary data associated with the publication CHEMBL2216752)”.
In brackets after ≈: the same amount, converted by molar mass.

Tests used:
[1] = molecular target: T1, Carnitine O-palmitoyltransferase 1, muscle isoform (Homo sapiens, UniProt Q92523); test: SUPPLEMENTARY: Inhibition of Carnitine palmitoyltransferase 1, muscle isoform; parameters: species or system Muscle tissue
T1 sequence (Q92523 whole entry): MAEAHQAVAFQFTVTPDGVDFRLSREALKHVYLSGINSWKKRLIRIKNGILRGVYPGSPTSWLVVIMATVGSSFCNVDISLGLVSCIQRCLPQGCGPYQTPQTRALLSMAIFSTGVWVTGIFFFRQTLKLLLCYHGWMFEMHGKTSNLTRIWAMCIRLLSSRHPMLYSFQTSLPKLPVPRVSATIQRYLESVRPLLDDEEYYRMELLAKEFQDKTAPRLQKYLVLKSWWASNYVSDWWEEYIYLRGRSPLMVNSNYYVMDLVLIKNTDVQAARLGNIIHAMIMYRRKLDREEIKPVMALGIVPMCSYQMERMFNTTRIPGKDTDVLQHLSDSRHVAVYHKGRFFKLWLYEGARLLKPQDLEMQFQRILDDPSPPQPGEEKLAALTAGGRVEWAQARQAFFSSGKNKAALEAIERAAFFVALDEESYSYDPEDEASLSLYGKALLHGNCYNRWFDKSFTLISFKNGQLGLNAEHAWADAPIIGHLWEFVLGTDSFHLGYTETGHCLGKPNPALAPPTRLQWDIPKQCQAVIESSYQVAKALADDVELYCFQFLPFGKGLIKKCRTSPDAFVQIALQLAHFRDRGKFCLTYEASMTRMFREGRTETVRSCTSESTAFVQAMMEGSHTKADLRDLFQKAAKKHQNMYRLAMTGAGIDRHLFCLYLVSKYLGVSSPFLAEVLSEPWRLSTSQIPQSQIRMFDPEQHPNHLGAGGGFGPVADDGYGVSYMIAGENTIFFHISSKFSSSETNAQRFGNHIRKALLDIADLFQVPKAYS

[2] = SUPPLEMENTARY: Lyophilisation Solubility Assay (LYSA); format: physicochemical; settings: read-out: Kinetic_solubility
[3] = molecular target: T2, Carnitine O-palmitoyltransferase 1, liver isoform (Homo sapiens, UniProt P50416); test: (§1) SUPPLEMENTARY: Inhibition of Carnitine palmitoyltransferase 1, liver isoform
T2 sequence (P50416 whole entry): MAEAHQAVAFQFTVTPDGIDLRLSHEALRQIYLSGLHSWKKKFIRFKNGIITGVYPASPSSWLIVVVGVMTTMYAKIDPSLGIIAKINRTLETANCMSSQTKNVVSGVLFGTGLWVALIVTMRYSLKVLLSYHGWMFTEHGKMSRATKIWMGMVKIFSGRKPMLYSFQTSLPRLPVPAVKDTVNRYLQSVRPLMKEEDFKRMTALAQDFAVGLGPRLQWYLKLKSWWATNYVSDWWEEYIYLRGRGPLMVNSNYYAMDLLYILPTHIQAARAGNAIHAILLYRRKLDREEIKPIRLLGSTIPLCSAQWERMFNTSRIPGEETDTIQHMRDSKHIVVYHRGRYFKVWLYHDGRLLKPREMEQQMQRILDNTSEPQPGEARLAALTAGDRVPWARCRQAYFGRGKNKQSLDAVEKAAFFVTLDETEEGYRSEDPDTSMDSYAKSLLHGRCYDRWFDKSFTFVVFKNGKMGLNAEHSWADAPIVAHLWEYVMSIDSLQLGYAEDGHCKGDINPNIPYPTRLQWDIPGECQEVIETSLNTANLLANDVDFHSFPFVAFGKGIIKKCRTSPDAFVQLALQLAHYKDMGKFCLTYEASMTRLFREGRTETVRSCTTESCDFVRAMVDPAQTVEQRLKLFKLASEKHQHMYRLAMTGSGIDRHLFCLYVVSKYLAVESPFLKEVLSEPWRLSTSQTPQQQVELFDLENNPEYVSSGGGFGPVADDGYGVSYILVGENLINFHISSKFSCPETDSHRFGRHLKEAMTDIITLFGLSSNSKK

[4] = molecular target: T3, Carnitine O-palmitoyltransferase 1, liver isoform (Rattus norvegicus, UniProt P32198); test: as §1
T3 sequence (P32198 whole entry): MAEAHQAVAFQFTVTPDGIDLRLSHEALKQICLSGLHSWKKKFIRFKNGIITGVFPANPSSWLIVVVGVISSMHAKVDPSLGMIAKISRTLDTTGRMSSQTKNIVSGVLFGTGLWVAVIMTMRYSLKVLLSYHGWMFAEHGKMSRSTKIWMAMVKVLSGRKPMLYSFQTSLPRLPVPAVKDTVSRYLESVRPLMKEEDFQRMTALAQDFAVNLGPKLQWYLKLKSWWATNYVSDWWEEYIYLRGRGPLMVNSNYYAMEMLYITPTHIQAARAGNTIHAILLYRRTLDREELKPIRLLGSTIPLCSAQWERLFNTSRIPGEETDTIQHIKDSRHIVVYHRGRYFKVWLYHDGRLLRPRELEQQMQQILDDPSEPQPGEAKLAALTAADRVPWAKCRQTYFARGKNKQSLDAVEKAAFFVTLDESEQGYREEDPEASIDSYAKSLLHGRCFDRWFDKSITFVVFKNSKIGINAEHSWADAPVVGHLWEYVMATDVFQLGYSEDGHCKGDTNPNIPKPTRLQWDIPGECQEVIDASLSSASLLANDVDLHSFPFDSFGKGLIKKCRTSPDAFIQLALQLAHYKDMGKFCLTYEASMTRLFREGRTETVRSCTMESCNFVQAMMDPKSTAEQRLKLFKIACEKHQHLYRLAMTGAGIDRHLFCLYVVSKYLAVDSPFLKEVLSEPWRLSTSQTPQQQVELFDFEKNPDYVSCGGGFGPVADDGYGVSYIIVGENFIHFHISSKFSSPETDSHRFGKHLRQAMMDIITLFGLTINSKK

[5] = SUPPLEMENTARY: PAMPA permeability assay; format: physicochemical; settings: read-out: Permeability
[6] = molecular target: T4, Carnitine O-palmitoyltransferase 2, mitochondrial (Rattus norvegicus, UniProt P18886); test: (§2) SUPPLEMENTARY: Inhibition of Carnitine palmitoyltransferase 2
T4 sequence (P18886 whole entry): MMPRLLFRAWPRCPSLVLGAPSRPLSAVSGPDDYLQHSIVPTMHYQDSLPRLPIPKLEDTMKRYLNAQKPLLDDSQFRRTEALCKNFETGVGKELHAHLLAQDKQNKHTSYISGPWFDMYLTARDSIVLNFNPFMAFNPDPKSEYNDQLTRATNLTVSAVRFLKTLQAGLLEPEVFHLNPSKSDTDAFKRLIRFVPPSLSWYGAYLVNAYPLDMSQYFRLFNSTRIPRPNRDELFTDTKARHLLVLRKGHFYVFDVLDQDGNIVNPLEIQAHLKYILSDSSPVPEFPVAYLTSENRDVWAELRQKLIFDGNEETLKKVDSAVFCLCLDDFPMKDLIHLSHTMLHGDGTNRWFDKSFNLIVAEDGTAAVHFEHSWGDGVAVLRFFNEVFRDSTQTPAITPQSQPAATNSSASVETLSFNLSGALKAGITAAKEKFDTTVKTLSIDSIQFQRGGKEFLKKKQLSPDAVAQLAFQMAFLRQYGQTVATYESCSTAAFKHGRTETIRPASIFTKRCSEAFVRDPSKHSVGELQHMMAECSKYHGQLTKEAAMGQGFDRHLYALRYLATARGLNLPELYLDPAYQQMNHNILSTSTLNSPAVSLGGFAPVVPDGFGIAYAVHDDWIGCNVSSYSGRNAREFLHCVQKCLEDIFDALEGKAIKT

[7] = molecular target: T5, Carnitine O-palmitoyltransferase 2, mitochondrial (Homo sapiens, UniProt P23786); test: as §2
T5 sequence (P23786 whole entry): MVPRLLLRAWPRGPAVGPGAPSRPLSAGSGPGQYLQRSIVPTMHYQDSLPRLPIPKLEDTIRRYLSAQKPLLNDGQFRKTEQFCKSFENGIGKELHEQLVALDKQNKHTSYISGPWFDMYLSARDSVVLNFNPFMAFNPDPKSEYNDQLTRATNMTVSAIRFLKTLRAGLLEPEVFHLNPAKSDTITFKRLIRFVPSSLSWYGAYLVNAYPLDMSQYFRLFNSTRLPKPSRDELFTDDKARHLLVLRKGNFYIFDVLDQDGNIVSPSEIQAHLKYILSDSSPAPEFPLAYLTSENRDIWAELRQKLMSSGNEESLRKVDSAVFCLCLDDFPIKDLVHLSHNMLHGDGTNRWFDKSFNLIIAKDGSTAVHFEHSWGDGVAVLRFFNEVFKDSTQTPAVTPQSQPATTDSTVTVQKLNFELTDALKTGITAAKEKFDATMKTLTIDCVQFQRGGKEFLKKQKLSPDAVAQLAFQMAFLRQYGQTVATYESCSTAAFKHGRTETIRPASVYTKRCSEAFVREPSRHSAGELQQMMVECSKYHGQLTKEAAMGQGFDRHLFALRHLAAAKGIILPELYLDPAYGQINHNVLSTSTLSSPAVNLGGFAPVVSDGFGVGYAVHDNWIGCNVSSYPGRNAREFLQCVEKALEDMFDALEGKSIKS

COc1ccc(Cl)cc1S(=O)(=O)N1CCOc2c(C)cc(C(=O)Nc3ccc(C(=O)O)cc3)cc21
IC50 [1]: 21100 nM | solubility kinetic [2]: 2 µg/mL (≈ 3.87 µM) | IC50 [3]: 46.3 nM | IC50 [4]: 41.3 nM | Papp [5]: 1.68 ×10⁻⁶ cm/s | IC50 [6]: 4330 nM | IC50 [7]: 554 nM

O=C(Cn1cc(-c2ccccc2)c2ccccc21)Nc1ccc(C(=O)O)cc1
IC50 [1]: 512 nM | solubility kinetic [2]: 19 µg/mL (≈ 51.3 µM) | IC50 [3]: 474 nM | IC50 [4]: 1390 nM | Papp [5]: 1.73 ×10⁻⁶ cm/s | IC50 [6]: > 100000 nM | IC50 [7]: 15400 nM

COc1ccc(Cl)cc1CN1C(=O)OC(C)(C)c2ccc(C(=O)Nc3ccc(C(=O)O)c(Cl)c3)cc21
IC50 [1]: 1220 nM | solubility kinetic [2]: 30 µg/mL (≈ 56.7 µM) | IC50 [3]: 245 nM | IC50 [4]: 50.8 nM | Papp [5]: 1.1 ×10⁻⁶ cm/s | IC50 [6]: 23900 nM | IC50 [7]: 4060 nM

COc1ccc(Cl)cc1CN1C(=O)COc2ccc(C(=O)Nc3nc(CC(=O)O)cs3)cc21
IC50 [1]: 32400 nM | solubility kinetic [2]: 34 µg/mL (≈ 69.7 µM) | IC50 [3]: 142 nM | IC50 [4]: 85.9 nM | Papp [5]: 1.13 ×10⁻⁶ cm/s | IC50 [6]: > 100000 nM | IC50 [7]: > 100000 nM

COc1ccc(Cl)cc1S(=O)(=O)c1nn(CCC(=O)O)c2ccc(C(=O)Nc3ccccc3)cc12
IC50 [1]: 49400 nM | solubility kinetic [2]: 25 µg/mL (≈ 48.6 µM) | IC50 [3]: 14.7 nM | IC50 [4]: 6.6 nM | Papp [5]: 0.67 ×10⁻⁶ cm/s | IC50 [6]: > 100000 nM | IC50 [7]: > 100000 nM

COc1ccc(C)cc1S(=O)(=O)n1ccc2ccc(C(=O)Nc3ccc(C(=O)O)cc3)cc21
IC50 [1]: 2650 nM | solubility kinetic [2]: < 1 µg/mL | IC50 [3]: 29.4 nM | IC50 [4]: 11.9 nM | Papp [5]: 1.23 ×10⁻⁶ cm/s | IC50 [6]: 2670 nM | IC50 [7]: 1070 nM

Cn1cc(Sc2cccc(Cl)c2)c2cc(C(=O)Nc3ccc(C(=O)O)cc3)ccc21
IC50 [1]: 1130 nM | solubility kinetic [2]: 7 µg/mL (≈ 16 µM) | IC50 [3]: 43.4 nM | IC50 [4]: 21.4 nM | Papp [5]: 0.13 ×10⁻⁶ cm/s | IC50 [6]: 7400 nM | IC50 [7]: 5070 nM

O=C(Nc1ccc(C(=O)O)c(F)c1)c1ccc2c(c1)N(S(=O)(=O)c1cccc(Cl)c1)CCO2
IC50 [1]: 6920 nM | solubility kinetic [2]: 4 µg/mL (≈ 8.15 µM) | IC50 [3]: 207 nM | IC50 [4]: 72.3 nM | Papp [5]: 2.21 ×10⁻⁶ cm/s | IC50 [6]: > 100000 nM | IC50 [7]: 18600 nM
